This note sets out measurements from patent EP0446124A2, “Use of antiprogestomimetics to synchronise parturition in livestock” (ROUSSEL UCLAF, priority 1990, dated 1991).

This assay deals with truies. The assay is described as follows: Synchronisation of parturition in sows: interval between injection of the active principle and farrowing. To be noted: single i.m. injection on day 113 of gestation (Ho = 9 h); for intervalle de temps entre l'injection du principe actif et la mise bas: 20 à 30 H (number of animals) / intervalle de temps entre l'injection du principe actif et la mise bas: 30 à 36 H (number of animals) / intervalle de temps entre l'injection du principe actif et la mise bas: - 20 H (number of animals): produit A 2 mg/kg (n = 24); for intervalle de temps entre l'injection du principe actif et la mise bas: 20 à 30 H (number of animals) / intervalle de temps entre l'injection du principe actif et la mise bas: 20 à 30 H (% des animaux): farrowing 20 to 30 h after injection; for intervalle de temps entre l'injection du principe actif et la mise bas: 30 à 36 H (number of animals) / intervalle de temps entre l'injection du principe actif et la mise bas: 30 à 36 H (% des animaux): farrowing 30 to 36 h after injection; for intervalle de temps entre l'injection du principe actif et la mise bas: - 20 H (number of animals) / intervalle de temps entre l'injection du principe actif et la mise bas: - 20 H (% des animaux): farrowing less than 20 h after injection; for intervalle de temps entre l'injection du principe actif et la mise bas: 20 à 30 H (% des animaux) / intervalle de temps entre l'injection du principe actif et la mise bas: 30 à 36 H (% des animaux) / intervalle de temps entre l'injection du principe actif et la mise bas: - 20 H (% des animaux): produit A 2 mg/kg. Type of assay: in vivo. From the text:
L'essai a été réalisé chez des truies. Les truies ont été sélectionnées en fonction des critères suivants : • truies de même origine (même schéma de sélection), • truies de même rang de parturition (3ème), • saillie par le même verrat ou insémination artificielle avec semence de même origine, • nombre de saillies ou d'inséminations identiques, • saillie ou insémination sur première chaleur post-sevrage (intervalle sevrage saillie identique ou très proche), • durée d'allaitement identique.
Les truies sont divisées en 3 lots de n animaux : • un lot témoin ne reçoit aucun produit, • un lot reçoit une injection intra-musculaire de 2 mg/kg de produit A ou 17béta-hydroxy 11béta-(4-diméthylaminophényl) 17alpha-(prop-1-ynyl) estra-4,9-dièn-3-one, le 113ème jour de la gestation, • un lot reçoit une injection intra-musculaire de 175 mcg de cloprosténol sous forme de PLANATE^ R par truie, le 113 ème jour de la gestation.
On a mesuré l'intervalle de temps entre l'injection du principe actif et la mise bas : le tableau suivant résume les résultats obtenus.
1.- Animaux traités (Ho = 9 heures le 113ème jour de gestation.

Setting [1] is: cloprosténol 175 mcg per sow (n = 23).

For the molecule `O=C(O)CCC/C=C\CC1C(O)CC(O)C1/C=C/C(O)COc1cccc(Cl)c1` (centres unmarked) [Cloprosténol, cloprosténol], the “intervalle de temps entre l'injection du principe actif et la mise bas: + 36 H (number of animals)” value (cloprosténol 175 mcg per sow (n = 23), farrowing more than 36 h after injection) stood at 3. Besides, the “intervalle de temps entre l'injection du principe actif et la mise bas: + 36 H (% des animaux)” value (cloprosténol 175 mcg per sow, farrowing more than 36 h after injection) is recorded as 13%. Moreover, under setting [1], the “intervalle de temps entre l'injection du principe actif et la mise bas: 20 à 30 H (number of animals)” value is given as 18, the “intervalle de temps entre l'injection du principe actif et la mise bas: 30 à 36 H (number of animals)” value worked out at 1 and the “intervalle de temps entre l'injection du principe actif et la mise bas: - 20 H (number of animals)” value was 1. In addition, under “cloprosténol 175 mcg per sow”, the “intervalle de temps entre l'injection du principe actif et la mise bas: 20 à 30 H (% des animaux)” value was found to be 78%, the “intervalle de temps entre l'injection du principe actif et la mise bas: 30 à 36 H (% des animaux)” value is 4,5% and the “intervalle de temps entre l'injection du principe actif et la mise bas: - 20 H (% des animaux)” value is reported as 4,5%.
`CC#C[C@]1(O)CC[C@H]2[C@@H]3CCC4=CC(=O)CCC4=C3[C@@H](c3ccc(N(C)C)cc3)C[C@@]21C` [Produit A, 17béta-hydroxy 11béta-(4-diméthylaminophényl) 17alpha-(prop-1-ynyl) estra-4,9-dièn-3-one]: under setting [1], the “intervalle de temps entre l'injection du principe actif et la mise bas: 20 à 30 H (number of animals)” value is 22, the “intervalle de temps entre l'injection du principe actif et la mise bas: 30 à 36 H (number of animals)” value was determined as 1 and the “intervalle de temps entre l'injection du principe actif et la mise bas: - 20 H (number of animals)” value came to 1. For the same molecule, for the setting “cloprosténol 175 mcg per sow”, the “intervalle de temps entre l'injection du principe actif et la mise bas: 20 à 30 H (% des animaux)” value was 92%, the “intervalle de temps entre l'injection du principe actif et la mise bas: 30 à 36 H (% des animaux)” value came to 4% and the “intervalle de temps entre l'injection du principe actif et la mise bas: - 20 H (% des animaux)” value was found to be 4%.
